Reference: US9718790B2, “Triazine derivative and pharmaceutical composition having an analgesic activity comprising the same” (SHIONOGI & CO., LTD., priority 2010, dated 2017)

What follows are molecules tested against human P2X3 receptor (Homo sapiens (Human), UniProt P56373) (assay: Evaluation of human P2X3 receptor inhibitory activity (Fluo-3 calcium fluorescence, FDSS 3000, ATP stimulation)). Details: C6BU-1 cells stably expressing human P2X3 receptor.
Format: cell-based
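Also: stimulus was 50 nM ATP with fluorescence followed for 3 min, and the response per well was peak post-ATP fluorescence divided by the reading at measurement start.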

Sequence of human P2X3 receptor (P56373 whole entry): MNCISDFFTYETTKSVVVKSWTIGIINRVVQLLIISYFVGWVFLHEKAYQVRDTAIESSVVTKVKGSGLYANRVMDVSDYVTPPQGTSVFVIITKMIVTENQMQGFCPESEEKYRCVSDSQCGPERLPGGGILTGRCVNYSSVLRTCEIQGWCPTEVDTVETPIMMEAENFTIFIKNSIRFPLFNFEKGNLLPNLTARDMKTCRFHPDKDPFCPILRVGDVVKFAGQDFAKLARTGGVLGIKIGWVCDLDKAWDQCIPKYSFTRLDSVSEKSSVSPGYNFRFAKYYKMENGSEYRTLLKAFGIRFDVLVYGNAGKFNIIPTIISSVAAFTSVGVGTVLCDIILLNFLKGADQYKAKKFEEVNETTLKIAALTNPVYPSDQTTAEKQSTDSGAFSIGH

Compound | IC50 [nM]
CCn1c(=O)[nH]/c(=N\c2ccc(OCCN(C)C(C)=O)cc2)n(Cc2ccc(Cl)cc2)c1=O [Compound I-2197] | 215
CCn1c(=O)[nH]/c(=N\c2ccc(OCc3nnc(C)o3)cc2)n(Cc2ccc(Cl)cc2)c1=O [Compound I-2199] | 515
CCn1c(=O)[nH]/c(=N\c2ccc(OCc3noc(C)n3)cc2)n(Cc2ccc(Cl)cc2)c1=O [Compound I-2200] | 545
CCn1c(=O)[nH]/c(=N\c2ccc(OCCc3ccccn3)cc2)n(Cc2ccc(Cl)cc2)c1=O [Compound I-2201] | 92
CCCn1c(=O)[nH]/c(=N\c2ccc(Oc3ccc(C(N)=O)nc3)cc2)n(Cc2ccc(Cl)cc2)c1=O [Compound I-2203] | 1
CCn1c(=O)[nH]/c(=N\c2ccc(Oc3cncc(C(=O)OC)c3)cc2)n(CC2CCC(C)(C)CC2)c1=O [Compound I-2204] | 28
CCn1c(=O)[nH]/c(=N\c2ccc(Oc3ccnc(C(=O)OC)c3)cc2)n(CC2CCC(C)(C)CC2)c1=O [Compound I-2205] | 9
CCn1c(=O)[nH]/c(=N\c2ccc(Oc3cc(C(=O)OC)ncn3)cc2)n(Cc2ccc(Cl)cc2)c1=O [Compound I-2206] | 12
CCn1c(=O)[nH]/c(=N\c2ccc(Oc3cncc(C(=O)O)c3)cc2)n(CC2CCC(C)(C)CC2)c1=O [Compound I-2207] | 69
CCn1c(=O)[nH]/c(=N\c2ccc(Oc3ccnc(C(=O)O)c3)cc2)n(CC2CCC(C)(C)CC2)c1=O [Compound I-2208] | 12
CCn1c(=O)[nH]/c(=N\c2ccc(Oc3cc(C(=O)O)ncn3)cc2)n(Cc2ccc(Cl)cc2)c1=O [Compound I-2209] | 8
CCn1c(=O)[nH]/c(=N\c2ccc(Oc3cc(C(=O)OC)nc(Cl)n3)cc2)n(Cc2ccc(Cl)cc2)c1=O [Compound I-2210] | 14
CCn1c(=O)[nH]/c(=N\c2ccc(Oc3ccnc(C(=O)O)c3)cc2)n(Cc2ccc(Cl)cn2)c1=O [Compound I-2211] | 14
CCn1c(=O)[nH]/c(=N\c2ccc(Oc3cnc(C(=O)OC)cn3)cc2)n(Cc2ccc(Cl)cc2)c1=O [Compound I-2212] | 2
CCn1c(=O)[nH]/c(=N\c2ccc(Oc3ccnc(NC(=O)NC4CC4)c3)cc2)n(Cc2ccc(Cl)cc2)c1=O [Compound I-2213] | 2
CCn1c(=O)[nH]/c(=N\c2ccc(Oc3ccc(N)nc3)cc2)n(Cc2ccc(Cl)cc2)c1=O [Compound I-2214] | 22
O=C(O)c1cncc(Oc2ccc(/N=c3\[nH]c(=O)n(CC(F)F)c(=O)n3Cc3ccc(Cl)cc3)cc2)c1 [Compound I-2215] | 6
CCn1c(=O)[nH]/c(=N\c2ccc(Oc3ccnc(NC(C)=O)c3)cc2)n(Cc2ccc(Cl)cc2)c1=O [Compound I-2216] | 5
CCC(=O)Nc1cc(Oc2ccc(/N=c3\[nH]c(=O)n(CC)c(=O)n3Cc3ccc(Cl)cc3)cc2)ccn1 [Compound I-2217] | 6
CCn1c(=O)[nH]/c(=N\c2ccc(Oc3ccc(C(=O)OC)c(F)c3)cc2)n(Cc2ccc(Cl)cc2)c1=O [Compound I-2218] | 3
CCn1c(=O)[nH]/c(=N\c2ccc(Oc3cc(F)cc(C(=O)OC)c3)cc2)n(Cc2ccc(Cl)cc2)c1=O [Compound I-2219] | 14
CCn1c(=O)[nH]/c(=N\c2ccc(Oc3nc(OC)nc(OC)n3)cc2)n(Cc2ccc(Cl)cc2)c1=O [Compound I-2220] | 37
CCn1c(=O)[nH]/c(=N\c2ccc(Oc3nc(O)nc(O)n3)cc2)n(Cc2ccc(Cl)cc2)c1=O [Compound I-2222] | 5
CCn1c(=O)[nH]/c(=N\c2ccc(Oc3cc(F)cc(C(=O)O)c3)cc2)n(Cc2ccc(Cl)cc2)c1=O [Compound I-2223] | 6

Same assay, conditions: human P2X3 receptor, Test Example 1

Compound | IC50 [nM]
CCn1c(=O)[nH]/c(=N\c2ccc(Oc3cccc(/C=C/C(=O)OC)c3)cc2)n(Cc2ccc(Cl)cc2)c1=O [Compound I-2224] | 33
CCn1c(=O)[nH]/c(=N\c2ccc(Oc3cccc(CCC(=O)OC)c3)cc2)n(Cc2ccc(Cl)cc2)c1=O [Compound I-2225] | 61
CCn1c(=O)[nH]/c(=N\c2ccc(Oc3ccc(C(=O)O)c(F)c3)cc2)n(Cc2ccc(Cl)cc2)c1=O [Compound I-2226] | 12
CCn1c(=O)[nH]/c(=N\c2ccc(Oc3cc(C#N)ccn3)cc2)n(Cc2ccc(Cl)cc2)c1=O [Compound I-2227] | 4
Cc1cc(Oc2ccc(/N=c3\[nH]c(=O)n(C[C@@H]4COC(C)(C)O4)c(=O)n3Cc3ccc(Cl)cc3)cc2)no1 [Compound I-2228] | 5
Cc1cc(Oc2ccc(/N=c3\[nH]c(=O)n(C[C@@H](O)CO)c(=O)n3Cc3ccc(Cl)cc3)cc2)no1 [Compound I-2229] | 23
CCCn1c(=O)[nH]/c(=N\c2ccc(Oc3ccc(C#N)nc3)cc2)n(Cc2ccc(Cl)cc2)c1=O [Compound I-2230] | 2
CCn1c(=O)[nH]/c(=N\c2ccc(Oc3cccc(/C=C/C(=O)O)c3)cc2)n(Cc2ccc(Cl)cc2)c1=O [Compound I-2231] | 3
CCn1c(=O)[nH]/c(=N\c2ccc(Oc3cccc(CCC(=O)O)c3)cc2)n(Cc2ccc(Cl)cc2)c1=O [Compound I-2232] | 13
CCn1c(=O)[nH]/c(=N\c2ccc(Oc3cc(F)cc(C(N)=O)c3)cc2)n(Cc2ccc(Cl)cc2)c1=O [Compound I-2233] | 2
CCn1c(=O)[nH]/c(=N\c2ccc(Oc3ccc(C(N)=O)c(F)c3)cc2)n(Cc2ccc(Cl)cc2)c1=O [Compound I-2234] | 2
CCn1c(=O)[nH]/c(=N\c2ccc(Oc3ccc(F)c(C(N)=O)c3)cc2)n(Cc2ccc(Cl)cc2)c1=O [Compound I-2235] | 4
CCn1c(=O)[nH]/c(=N\c2ccc(Oc3cncc(C(N)=O)c3)cc2)n(Cc2ccc(Cl)cn2)c1=O [Compound I-2236] | 62
CCn1c(=O)[nH]/c(=N\c2ccc(Oc3ccnc(C(N)=O)c3)cc2)n(Cc2ccc(Cl)cn2)c1=O [Compound I-2237] | 20
CCn1c(=O)[nH]/c(=N\c2ccc(Oc3cccc(C(=O)OC)n3)cc2)n(Cc2ccc(Cl)cn2)c1=O [Compound I-2238] | 148
CCn1c(=O)[nH]/c(=N\c2ccc(Oc3cccc(C(=O)O)n3)cc2)n(Cc2ccc(Cl)cn2)c1=O [Compound I-2239] | 49
CCn1c(=O)[nH]/c(=N\c2ccc(Oc3cccc(C(N)=O)n3)cc2)n(Cc2ccc(Cl)cn2)c1=O [Compound I-2240] | 21
CCn1c(=O)[nH]/c(=N\c2ccc(Oc3ccc(NC(C)=O)nc3)cc2)n(Cc2ccc(Cl)cc2)c1=O [Compound I-2241] | 1
CCC(=O)Nc1ccc(Oc2ccc(/N=c3\[nH]c(=O)n(CC)c(=O)n3Cc3ccc(Cl)cc3)cc2)cn1 [Compound I-2242] | < 4
CCn1c(=O)[nH]/c(=N\c2ccc(Oc3ccc(NC(=O)NC4CC4)nc3)cc2)n(Cc2ccc(Cl)cc2)c1=O [Compound I-2243] | 6
CCn1c(=O)[nH]/c(=N\c2ccc(Oc3ccnc(CN(C)C)c3)cc2)n(Cc2ccc(Cl)cc2)c1=O [Compound I-2244] | 59
CCn1c(=O)[nH]/c(=N\c2ccc(Oc3ccnc(CNC)c3)cc2)n(Cc2ccc(Cl)cc2)c1=O [Compound I-2245] | 108
CCn1c(=O)[nH]/c(=N\[C@H]2CC[C@H](Oc3ccnc(C(=O)NC)c3)CC2)n(Cc2ccc(Cl)cc2)c1=O [Compound I-2246] | 790
CCn1c(=O)[nH]/c(=N\c2ccc(Oc3cc(C(=O)OC)sn3)cc2)n(Cc2ccc(Cl)cc2)c1=O [Compound I-2247] | 3
